Laboratory results reported in patent US10881703B2, “Composition for use in the treatment of intestinal alterations” (priority 2016, dated 2021).

System: THP-1 cells and intestinal epithelial cells (CacoGoblet)
Experiment: Monocyte-epithelial cell adhesion assay (THP-1 cells on CacoGoblet)
Format: cell-based, human
Settings: inflamed mucosa (IL1 beta 10 ng/ml overnight), 24 hours treatment
Experimental: The CacoGoblet cells were pre-treated with 10 ng/ml of IL1 beta overnight. […] A parallel treatment was carried out with the reference molecule etacortilen (Dexamethasone Sodium Phosphate) at 0.15% in order to study the overcoming of the inflammatory state of the mucosa. […] Once the non-adherent cells had been removed, the residual surface fluorescence of the THP-1 cells was evaluated under a microscope. The anti-inflammatory activity of the various compounds at the intestinal level was assessed in a static assay using the reduction in the cellular adhesion of THP-1 on CacoGoblet as an endpoint parameter. • 2) Ability of Cranberries to Prevent Adhesion of E. Coli to Mucosa The CacoGoblet cells were treated overnight with IL-1beta, the pro-inflammatory cytokine, prior to the adhesion assay in order to create inflamed mucosa. The treated monolayers were then treated with the products for 24 hours. The marked THP-1 cells were added on top of the CacoGoblet in each well. The THP-1 cells were marked with the fluorescent dye chloromethylfluorescein diacetate (CMFDA; Invitrogen). After incubation, the monolayer was gently washed to remove the non-adherent THP-1 cells. The adherent cells marked with the fluorescent dye were viewed under a fluorescence microscope. […]

C[C@@H]1C[C@H]2[C@@H]3CCC4=CC(=O)C=C[C@]4(C)[C@@]3(F)[C@@H](O)C[C@]2(C)[C@@]1(O)C(=O)COP(=O)(O)O [etacortilen, Dexamethasone Sodium Phosphate]
adhesion of THP-1 cells: significant decrease in the adhesion of THP-1 cells
